{
  "source": "patent US5554357A",
  "about": "“Magnetic resonance imaging agents containing hydrazide moieties” (Mallinckrodt Medical, Inc., priority 1994, dated 1996)",
  "key": {"[1]": {"test_system": "ICR mice", "test": "acute intravenous toxicity", "format": "in vivo, mouse (ICR)", "conditions": "single intravenous injection via lateral tail vein, males and females, 7 days observation, 95% Confidence Limits 6.8-19.6 mmol/kg", "protocol": "The acute intravenous toxicity of the compound of Example 1 was determined as follows: ICR mice, at 1 to 4 per dose level, received single intravenous injections of the test substance via a lateral tail vein at the rate of approximately 1 ml/minute. The test substances were at concentrations chosen to result in dose volumes of 5 to 75 ml/kg body weight. Dosing began at a volume of 10 ml/kg. Dose adjustments up or down were made to closely bracket the estimated LD50 with 4 animals per group (2 males and 2 females). Observations of the mice were recorded at times 0, 0.5, 1, 2, 4 and 24 hours and once daily thereafter for up to 7 days post injection. On the 7th day post injection, the mice were euthanized, weighed and necropsied. Abnormal tissues were noted. At this time a decision was made as to whether any histopathology was to be performed and whether or not the tissues should be retained. Necropsies were also performed on mice expiring after 24 hours post-injection, except for dead mice found on the weekends. The LD50 values, along with 95% CI were calculated using a modified Behrens-Reed-Meunch method."}, "[2]": {"test": "T1 relaxivity by spin-echo NMR", "format": "physicochemical", "conditions": "90 MHz, H2O/D2O (4:1), six concentrations from 20 mM down; least-square fit of 1/T1 versus concentration, correlation coefficient 0.9994", "protocol": "T1 relaxation times were measured using spin-echo sequence on the JEOL FX90Q (90 MHz) FT-NMR spectrometer/ Twenty millimolar solution of the complex in Example 1 was prepared in H2 O/D2 O (4:1) mixture and was serially diluted to lower concentrations ([…]) with H2 O/D2 O (4:1) mixture. T1 measurements were made at each of these 6 concentrations. The relaxivity (R1) was determined by applying least-square fit to the plot of 1/T1 versus concentration. The relaxivity of the complex in Example 1 was 4.85+0.06 mM^-1 sec^-1. The correlation coefficient for the least squares analysis was 0.9994."}},
  "data": [
    {"smiles": "CN(C)NC(=O)CN(CCN(CCN(CC(=O)[O-])CC(=O)NN(C)C)CC(=O)[O-])CC(=O)[O-].O.[Gd+3]", "note": "[Example 1]", "values": [
      {"measurement": "LD50", "setting": "[1]", "value": 11.5, "unit": "mmol/kg"},
      {"measurement": "relaxivity (R1)", "setting": "[2]", "value": "4.85 ± 0.06", "unit": "mM⁻¹ s⁻¹"}
    ]}
  ]
}
